Measured values reported in US10329243B2, “Biphenyl derivative and uses thereof” (XI'AN LIBANG PHARMACEUTICAL CO., LTD, priority 2015, dated 2019).
Like-named read-outs stand apart in the source and are kept apart here.

How the values were obtained:
Format in all cases: in vivo, SD rats
Fas = Fas determination (immunohistochemical method), permanent cerebral ischemia model
Method: (§1) Rats were intraperitoneally injected with 10% chloral hydrate 350 mg/kg after anesthesia and opened up at the center of the neck in accordance with the Zea Longa modified method. The right common carotid artery was separated, and the right external carotid artery branches was ligated. A small opening was made at the distal end of the external carotid artery, and a previously prepared thread was inserted through the common carotid artery and the external carotid artery bifurcation into the internal carotid artery, till the anterior end of the middle cerebral artery, with an immersed depth of 18 to 19 mm. The thread was then secured, and the wound was sutured layer by layer. After the operation, the rats were placed in a clean incubator to wake up. […] The sham operation group, the permanent cerebral ischemia model group, and the Example groups were prepared strictly according to the requirements of the cerebral ischemic reperfusion model, while in the sham operation group the thread was put only into the external carotid artery. The animals were allowed to eat and drink freely after waking up. The sham operation group, the permanent cerebral ischemia model group, and the Example groups were administered intravenously the aqueous solution of the biphenyl derivatives in PEG400 at 40 mg/kg (40 mg/kg means that 40 mg of the test compound per kg of the body weight of rats) 30 min before insertion of thread and 12 h after embolism, respectively. The sham operation group and the permanent cerebral ischemia model group were injected with the same amount of blank PEG400 aqueous solution at the same time point.
(§2) 24 hours after the embolism, 8 rats in each group were sacrificed by decapitation, the brain was removed, rinsed with PBS (pH 7.4) at −20°i for 20 min, evenly sliced (with a thickness of 2 mm), stained in a 2% TTC solution at 37°% in the dark for 30 min, fixed in 10% formalin for 24 h, and photographs were taken to analyze the infarct volume. A mixture of femoral arterial and venous blood was drawn from another 8 rats in each group under anesthesia, placed in a low temperature centrifuge at 4° C., centrifuged at 3500 r/min for 20 min, and the supernatant was stored in a refrigerator at −20° C. ready for SOD and MDA detection. After the blood was drawn, a perfusion needle was insert through the apex to the ascending aorta, and saline at 4° C. was rapid infused until the effluent became clear, followed by 4% paraformaldehyde phosphate buffer perfusion for fixation; the brain was removed by craniotomy, and brain tissues 2 mm in front of and behind the optic chiasma were taken and fixed, dehydrated, rendered transparent, impregnated in wax, and embedded. Brain continuous coronary tissue pathological sections were consecutively cut for later use. The remaining 8 rats in each group were sacrificed, brains were removed, the ischemic brain hemispheres were immediately taken on an ice tray, and 10% brain tissue homogenate was prepared for the detection of IL-1β and TNF-α.
The immunohistochemical method was used for determination. Brain tissue paraffin sections were dewaxed into water, washed with 3% H2O2 to eliminate endogenous peroxidase activity, and rinsed with distilled water for 3 times. Sodium citrate buffer was used for antigen heat repairing, and blocking with calf serum was carried out at room temperature for 15 min; a rabbit anti-mouse Fas antibody was added dropwise, allowed to stand at 4°t overnight, biotinylated goat anti-rabbit IgG was added dropwise, and heated in a water bath at 37°a for 20 min. Washing with PBS for 5 min was continuously repeated 4 times, followed by staining with DAB and sufficient washing without counterstaining. The sections were then gradient dehydrated with alcohol, made transparent with toluene, sealed and fixed. Images were captured by a video camera under high-power optical microscope and inputted into the image analysis system for image analysis. […]

[1] = system: rats with permanent cerebral ischemia injury
Method: 336 healthy male SD rats weighing 250-300 g, provided by the Experimental Animal Center of the Fourth Military Medical University, were randomly divided into […]: the sham operation group, the permanent cerebral ischemia model group, and Examples 1-12 groups. The biphenyl derivatives used in each of the Examples 1-12 groups were the same as those in Example 13.
as §1, with “The sham operation group, the permanent cerebral ischemia model group, and the Example groups were administered intravenously the aqueous solution of the biphenyl derivatives in PEG400 at 40 mg/kg (40 mg/kg means that 40 mg of the test compound per kg of the body weight of rats) 30 min before insertion of thread and 12 h after embolism, respectively.” left out
The neurological impairment was scored in each group 24 h after the embolism. The scoring was in accordance with the Longa 5-grade method: grade 0: no nerve injury symptom; grade 1: inability of stretching the contralateral forepaw; grade 2: circling to the opposite side; grade 3: tumbling to the opposite side; grade 4: no autonomous activity with loss of consciousness.

MDA = MDA determination, permanent cerebral ischemia model
Method: as §1, §2
SOD and MDA were determined strictly in accordance with instructions of the kit.

[2] = permanent cerebral ischemia model rats, 40 mg/kg intravenously 30 min before insertion of thread and 12 h after embolism, scored 24 h after the embolism, Longa grade 0-4
[3] = permanent cerebral ischemia model rats, edaravone 3 mg/kg
[4] = permanent cerebral ischemia model rats, 40 mg/kg intravenously, brain sections 24 h after the embolism, gray scale inversely proportional to positive expression
[5] = permanent cerebral ischemia model rats, 40 mg/kg intravenously, serum, 24 h after the embolism

## 3,3′,5,5′-tetraisopropylbiphenyl-4,4′-bis(oxymethylene phosphate) [Example 3 group]
Fas; rat, in vivo, iv, 40 mg/kg
  Fas average gray scale: 143.39 ± 4.23
[1]; [2]
  Average score of neurological impairment: 2.8
MDA; rat, in vivo, iv, 40 mg/kg
  MDA CONTENT: 5.07 ± 0.77 mmol/mL

## CC1=NN(c2ccccc2)C(=O)C1 [Edaravone injection, edaravone, reference compound]
Fas; [3]
  Fas average gray value: 138.95 ± 5.50
MDA; [3]
  MDA CONTENT: 5.98 ± 0.44 mmol/mL

## CC(=O)Oc1c(C(C)C)cc(-c2cc(C(C)C)c(O)c(C(C)C)c2)cc1C(C)C [Example 1 group, 4′-hydroxy-3,3′,5,5′-tetraisopropylbiphenyl-4-acetate]
[1]; [2]
  Average score of neurological impairment: 2.4
MDA; permanent cerebral ischemia model rats, 40 mg/kg intravenously, serum, 24 h after the embolism, 40 mg/kg
  MDA CONTENT: 4.49 ± 0.59 mmol/mL

## CC(=O)Oc1c(C(C)C)cc(-c2cc(C(C)C)c(OC(C)=O)c(C(C)C)c2)cc1C(C)C [Example 2 group, 3,3′,5,5′-tetraisopropylbiphenyl-4′-diacetate]
Fas; [4]
  Fas average gray scale: 149.63 ± 8.15
[1]; [2]
  Average score of neurological impairment: 2.5
MDA; [5]
  MDA CONTENT: 5.10 ± 0.82 mmol/mL

## CC(C)c1cc(-c2cc(C(C)C)c(OC(=O)CCC(=O)O)c(C(C)C)c2)cc(C(C)C)c1O [Example 5 group, [4-(4′-hydroxy-3,3′,5,5′-tetraisopropylbiphenyl)oxy]-4-carbonyl butyric acid]
Fas; [4]
  Fas average gray scale: 143.02 ± 5.53
[1]; [2]
  Average score of neurological impairment: 2.4
MDA; [5]
  MDA CONTENT: 4.68 ± 0.42 mmol/mL

## CCCc1cc(-c2cc(CCC)c(O)c(C(C)C)c2)cc(C(C)C)c1O [Example 6 group, 4,4′-dihydroxy-3,3′-diisopropyl-5,5′-dipropylbiphenyl]
Fas; [4]
  Fas average gray scale: 151.63 ± 5.58
[1]; [2]
  Average score of neurological impairment: 2.2
MDA; [5]
  MDA CONTENT: 4.31 ± 0.51 mmol/mL

## CCCc1cc(-c2cc(CCC)c(O)c(CCC)c2)cc(CCC)c1O [Example 7 group, 4,4′-dihydroxy-3,3′,5,5′-tetrapropylbiphenyl]
Fas; [4]
  Fas average gray scale: 153.46 ± 5.73
[1]; [2]
  Average score of neurological impairment: 2.3
MDA; [5]
  MDA CONTENT: 4.42 ± 0.39 mmol/mL

## CC(C)c1cc(-c2cc(C(C)C)c(C(=O)O)c(C(C)C)c2)cc(C(C)C)c1O [Example 8 group, 4′-hydroxy-3,3′,5,5′-tetraisopropylbiphenyl-4-carboxylic acid]
Fas; [4]
  Fas average gray scale: 145.24 ± 5.26
[1]; [2]
  Average score of neurological impairment: 2.7
MDA; [5]
  MDA CONTENT: 5.06 ± 0.28 mmol/mL

## CC(C)c1cc(-c2cc(C(C)C)c(Cl)c(C(C)C)c2)cc(C(C)C)c1O [Example 9 group, 4-chloro-4′-hydroxy-3,3′,5,5′-tetraisopropylbiphenyl]
Fas; rat, in vivo, iv, 40 mg/kg
  Fas average gray scale: 144.31 ± 5.49
[1]; rat, in vivo, iv, 40 mg/kg
  Average score of neurological impairment: 2.8
MDA; rat, in vivo, iv, 40 mg/kg
  MDA CONTENT: 5.26 ± 0.49 mmol/mL

## CC(C)c1cc(-c2cc(C(C)C)c(OC=O)c(C(C)C)c2)cc(C(C)C)c1O [Example 10 group]
Fas; [4]
  Fas average gray scale: 140.62 ± 3.85
[1]; [2]
  Average score of neurological impairment: 2.4

## CC(C)c1cc(-c2cc(C(C)C)c(OC(=O)C(N)C(C)C)c(C(C)C)c2)cc(C(C)C)c1O (centres unmarked) [Example 11 group, 4′-hydroxy-3,3′,5,5′-tetraisopropylbiphenyl-2-amino-3-methylbutyrate]
Fas; [4]
  Fas average gray scale: 150.72 ± 4.19
[1]; [2]
  Average score of neurological impairment: 2.3

## CC(=O)OC(C)Oc1c(C(C)C)cc(-c2cc(C(C)C)c(O)c(C(C)C)c2)cc1C(C)C (centres unmarked) [Example 12 group, Ethyl 1-(4′-hydroxy-3,3′,5,5′-tetraisopropylbiphenyl-4-oxo)acetate]
Fas; [4]
  Fas average gray scale: 139.48 ± 5.72
[1]; [2]
  Average score of neurological impairment: 2.6
MDA; [5]
  MDA CONTENT: 6.03 ± 0.36 mmol/mL
